Measurements taken from patent US10479795B2 (Incyte Corporation, priority 2016, dated 2019).
Where a name gives a salt, the structure may show the parent alone.

Legend:
[1] = biological target: PI3Kγ (p110γ) Recombinant Human Protein (Homo sapiens (Human), UniProt P48736); experiment: PI3K-γ Scintillation Proximity Assay; format: biochemical; conditions: read-out: PI3Kγ IC50
Method in brief: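 Recombinant human p110γ assayed at room temperature in 20 mM MOPS pH 6.7, 10 mM MgCl2, 5 mM DTT, 0.03% CHAPS, 2% DMSO, with 20 μM PIP2 and 2 μM ATP plus [γ-33P]ATP. Product captured on WGA SPA beads overnight and counted; IC50 fitted from % of solvent-control activity versus log inhibitor concentration.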

[2] = biological target: PI3Kδ (p110δ/p85α) Recombinant Human Protein (Homo sapiens (Human), UniProt O00329); experiment: PI3Kδ Scintillation Proximity Assay; format: biochemical
Method in brief: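 Recombinant human p110δ/p85α (3.4 nM) phosphorylates 20 μM di-octanoyl PIP2 using 2 μM ATP spiked with [γ-33P]ATP, 120 min, room temperature, pH 6.7, 2% DMSO. Product measured by scintillation proximity; IC50 from dose-response fit.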

[3] = system: Phosphorylated Ribosomal Protein S6 (RPS6); experiment: THP-1 RPS6 ELISA Assay; format: cell-based, Human; conditions: Homo sapiens; THP-1 cells; read-out: PI3Kγ_THP1_RPS6_ELISA IC50
Method in brief: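 Serum-starved THP-1 cells were preincubated with a concentration range of compound for 2 h at 37 °C, then stimulated with 10 nM MCP-1 for 15 min. Phospho-RPS6 in lysates was quantified by ELISA at 450 nm. IC50 came from percent inhibition versus log inhibitor concentration.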

PI3Kδ (p110δ/p85α) Recombinant Human Protein, sequence (O00329 whole entry): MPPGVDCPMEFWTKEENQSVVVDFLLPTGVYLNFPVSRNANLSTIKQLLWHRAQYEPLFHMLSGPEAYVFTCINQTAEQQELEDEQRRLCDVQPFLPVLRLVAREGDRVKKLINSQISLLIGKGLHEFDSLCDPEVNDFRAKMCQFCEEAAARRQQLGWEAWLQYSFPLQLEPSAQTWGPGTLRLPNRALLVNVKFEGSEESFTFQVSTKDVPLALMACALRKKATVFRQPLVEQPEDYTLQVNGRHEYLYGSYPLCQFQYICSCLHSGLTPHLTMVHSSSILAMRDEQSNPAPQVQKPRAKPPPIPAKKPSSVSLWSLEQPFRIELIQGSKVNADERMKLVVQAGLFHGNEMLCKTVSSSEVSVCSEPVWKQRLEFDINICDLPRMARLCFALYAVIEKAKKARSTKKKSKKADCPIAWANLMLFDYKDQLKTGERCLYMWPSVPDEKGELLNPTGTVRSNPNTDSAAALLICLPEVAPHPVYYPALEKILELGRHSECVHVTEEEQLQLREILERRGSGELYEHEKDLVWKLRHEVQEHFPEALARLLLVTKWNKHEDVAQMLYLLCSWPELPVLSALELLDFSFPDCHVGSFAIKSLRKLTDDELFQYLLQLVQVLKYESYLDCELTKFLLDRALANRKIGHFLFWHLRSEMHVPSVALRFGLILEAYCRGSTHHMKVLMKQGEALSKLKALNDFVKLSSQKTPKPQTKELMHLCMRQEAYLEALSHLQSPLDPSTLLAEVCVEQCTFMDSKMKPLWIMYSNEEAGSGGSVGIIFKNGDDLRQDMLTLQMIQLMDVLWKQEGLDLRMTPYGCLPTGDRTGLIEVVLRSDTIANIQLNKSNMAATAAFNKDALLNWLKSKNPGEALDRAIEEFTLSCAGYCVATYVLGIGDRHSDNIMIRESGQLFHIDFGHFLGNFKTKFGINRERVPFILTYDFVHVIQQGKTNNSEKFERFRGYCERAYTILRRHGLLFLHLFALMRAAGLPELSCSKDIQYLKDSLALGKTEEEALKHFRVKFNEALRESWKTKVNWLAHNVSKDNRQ
PI3Kδ (p110δ/p85α) Recombinant Human Protein, sequence (P27986 whole entry partner): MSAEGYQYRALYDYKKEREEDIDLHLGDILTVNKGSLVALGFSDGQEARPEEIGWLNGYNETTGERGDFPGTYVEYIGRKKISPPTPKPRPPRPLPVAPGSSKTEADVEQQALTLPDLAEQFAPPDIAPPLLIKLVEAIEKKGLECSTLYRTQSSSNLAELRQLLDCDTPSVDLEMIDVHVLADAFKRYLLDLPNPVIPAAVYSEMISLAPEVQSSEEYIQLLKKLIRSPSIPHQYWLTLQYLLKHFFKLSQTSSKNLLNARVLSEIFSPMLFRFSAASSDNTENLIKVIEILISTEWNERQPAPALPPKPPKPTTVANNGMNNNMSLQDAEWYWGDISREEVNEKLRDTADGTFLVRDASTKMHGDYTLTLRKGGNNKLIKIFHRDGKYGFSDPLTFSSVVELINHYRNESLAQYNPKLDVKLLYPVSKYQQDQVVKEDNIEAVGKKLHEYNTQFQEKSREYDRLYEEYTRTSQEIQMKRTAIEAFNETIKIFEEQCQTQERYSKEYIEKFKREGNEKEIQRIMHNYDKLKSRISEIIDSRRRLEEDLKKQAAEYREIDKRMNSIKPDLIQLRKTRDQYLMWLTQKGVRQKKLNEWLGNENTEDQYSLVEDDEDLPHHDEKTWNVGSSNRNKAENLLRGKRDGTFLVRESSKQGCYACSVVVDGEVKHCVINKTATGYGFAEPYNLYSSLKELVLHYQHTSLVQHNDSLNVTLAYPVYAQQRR
PI3Kγ (p110γ) Recombinant Human Protein, sequence (P48736 whole entry): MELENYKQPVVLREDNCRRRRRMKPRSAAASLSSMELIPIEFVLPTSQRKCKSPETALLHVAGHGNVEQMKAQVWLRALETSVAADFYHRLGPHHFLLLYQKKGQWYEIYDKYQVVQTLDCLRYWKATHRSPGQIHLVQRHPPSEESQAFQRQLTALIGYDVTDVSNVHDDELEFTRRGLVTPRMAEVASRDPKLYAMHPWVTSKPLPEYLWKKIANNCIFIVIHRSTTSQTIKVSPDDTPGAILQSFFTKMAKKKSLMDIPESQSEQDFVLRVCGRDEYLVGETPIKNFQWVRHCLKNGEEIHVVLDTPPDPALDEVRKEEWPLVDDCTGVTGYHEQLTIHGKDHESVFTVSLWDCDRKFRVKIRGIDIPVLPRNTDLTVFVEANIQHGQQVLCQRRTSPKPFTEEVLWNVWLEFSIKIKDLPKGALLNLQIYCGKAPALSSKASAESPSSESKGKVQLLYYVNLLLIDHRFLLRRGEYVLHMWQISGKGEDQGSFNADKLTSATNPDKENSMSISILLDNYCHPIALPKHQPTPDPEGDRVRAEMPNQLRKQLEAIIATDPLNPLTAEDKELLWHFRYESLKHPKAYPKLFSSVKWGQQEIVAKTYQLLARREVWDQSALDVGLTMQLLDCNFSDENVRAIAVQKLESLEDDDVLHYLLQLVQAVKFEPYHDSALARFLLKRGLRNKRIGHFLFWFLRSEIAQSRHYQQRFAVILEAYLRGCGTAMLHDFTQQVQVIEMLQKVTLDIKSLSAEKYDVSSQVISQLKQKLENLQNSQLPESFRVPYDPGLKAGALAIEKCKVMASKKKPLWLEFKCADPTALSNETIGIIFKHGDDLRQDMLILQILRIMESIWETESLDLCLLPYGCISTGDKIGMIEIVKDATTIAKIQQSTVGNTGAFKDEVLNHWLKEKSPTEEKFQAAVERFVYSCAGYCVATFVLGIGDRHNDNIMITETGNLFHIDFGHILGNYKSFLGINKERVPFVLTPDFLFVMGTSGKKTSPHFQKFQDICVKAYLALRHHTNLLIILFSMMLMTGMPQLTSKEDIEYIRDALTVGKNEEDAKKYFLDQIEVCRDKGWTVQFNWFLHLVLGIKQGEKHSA

`Cc1ccc(S(=O)(=O)NC23CCC(C(C)(C)O)(CC2)OC3)cc1-c1cnc2c(N)nc(C(F)(F)F)cn12` [Example 441, 3-(8-Amino-6-(trifluoromethyl)imidazo[1,2-a]pyrazin-3-yl)-N-(1-(2-hydroxypropan-2-yl)-2-oxabicyclo[2.2.2]octan-4-yl)-4-methylbenzenesulfonamide trifluoroacetate salt] showed an IC50 [1] of less than 0.1 µM, an IC50 [2] of 0.1 to 0.5 µM and an IC50 [3] of 0.1 to 0.5 µM.

Compound `Cc1ccc(S(=O)(=O)NC23CCC(O)(CC2)C3)cc1-c1cnc2c(N)ncnn12` [Example 442, 3-(4-Aminoimidazo[1,2-f][1,2,4]triazin-7-yl)-N-((1s,4s)-4-hydroxybicyclo[2.2.1]heptan-1-yl)-4-methylbenzenesulfonamide trifluoroacetate salt] has an IC50 [1] of less than 0.1 µM, an IC50 [2] of 0.5 to 2 µM and an IC50 [3] of 0.1 to 0.5 µM.

For `Cc1nc(N)c2ncc(-c3cc(S(=O)(=O)NC45CCC(O)(CC4)C5)ccc3C)n2n1` [Example 443, 3-(4-Amino-2-methylimidazo[1,2-f][1,2,4]triazin-7-yl)-N-(4-hydroxybicyclo[2.2.1]heptan-1-yl)-4-methylbenzenesulfonamide trifluoroacetate salt], the IC50 [1] was less than 0.1 µM, the IC50 [2] was less than 0.1 µM and the IC50 [3] was 0.1 to 0.5 µM.

`Cc1ccc(S(=O)(=O)NC23CCC(O)(CC2)C3)cc1-c1cnc2c(N)nc(C(F)(F)F)cn12` [Example 444, 3-(8-Amino-6-(trifluoromethyl)imidazo[1,2-a]pyrazin-3-yl)-N-(4-hydroxybicyclo[2.2.1]heptan-1-yl)-4-methylbenzenesulfonamide trifluoroacetate salt] gave an IC50 [1] of less than 0.1 µM, an IC50 [2] of less than 0.1 µM and an IC50 [3] of 0.1 to 0.5 µM.

In the case of `CNC(=O)c1cn2c(-c3cc(S(=O)(=O)NCC4CC(F)(F)C4)ccc3C)cnc2c(N)n1` [Example 445, 8-Amino-3-(5-(N-((3,3-difluorocyclobutyl)methyl)sulfamoyl)-2-methylphenyl)-N-methylimidazo[1,2-a]pyrazine-6-carboxamide trifluoroacetate salt], the IC50 [1] is reported as less than 0.1 µM, the IC50 [2] is reported as 0.1 to 0.5 µM and the IC50 [3] is reported as 0.1 to 0.5 µM.

Work on `Cc1ccc(S(=O)(=O)NCC2CC(F)(F)C2)cc1-c1cnc2c(N)nc(C(=O)NC3CCC3)cn12` [Example 446, 8-amino-N-cyclobutyl-3-(5-(N-((3,3-difluorocyclobutyl)methyl)sulfamoyl)-2-methylphenyl)imidazo[1,2-a]pyrazine-6-carboxamide trifluoroacetate salt] yielded an IC50 [1] of less than 0.1 µM, an IC50 [2] of 0.1 to 0.5 µM and an IC50 [3] of 0.1 to 0.5 µM.

`CNC(=O)c1cn2c(-c3cc(S(=O)(=O)NC4CC(F)(F)C4)ccc3C)cnc2c(N)n1` [Example 447, 8-Amino-3-(5-(N-(3,3-difluorocyclobutyl)sulfamoyl)-2-methylphenyl)-N-methylimidazo[1,2-a]pyrazine-6-carboxamide trifluoroacetate salt] was tested, and the IC50 [1] was less than 0.1 µM, the IC50 [2] was 0.5 to 2 µM and the IC50 [3] was 0.5 to 1 µM.

In the case of `Cc1ccc(S(=O)(=O)NC2CC(F)(F)C2)cc1-c1cnc2c(N)nc(C(=O)NC3CCC3)cn12` [Example 448, 8-amino-N-cyclobutyl-3-(5-(N-(3,3-difluorocyclobutyl)sulfamoyl)-2-methylphenyl)imidazo[1,2-a]pyrazine-6-carboxamide trifluoroacetate salt], the IC50 [1] is reported as less than 0.1 µM, the IC50 [2] is reported as 0.5 to 2 µM and the IC50 [3] is reported as 0.1 to 0.5 µM.

`CNC(=O)c1cn2c(-c3cc(S(=O)(=O)N[C@H]4CC[C@H](CC#N)OC4)ccc3C)cnc2c(N)n1` [Example 449, 8-Amino-3-(5-(N-((3S,6R)-6-(cyanomethyl)tetrahydro-2H-pyran-3-yl)sulfamoyl)-2-methylphenyl)-N-methylimidazo[1,2-a]pyrazine-6-carboxamide trifluoroacetate salt] showed an IC50 [1] of less than 0.1 µM, an IC50 [2] of 0.1 to 0.5 µM and an IC50 [3] greater than 1 µM.

In the case of `Cc1ccc(S(=O)(=O)N[C@H]2CC[C@H](CC#N)OC2)cc1-c1cnc2c(N)nc(C(=O)NC3CCC3)cn12` [Example 450, 8-amino-3-(5-(N-((3S,6R)-6-(cyanomethyl)tetrahydro-2H-pyran-3-yl)sulfamoyl)-2-methylphenyl)-N-cyclobutylimidazo[1,2-a]pyrazine-6-carboxamide trifluoroacetate salt], the IC50 [1] is reported as less than 0.1 µM, the IC50 [2] is reported as 0.1 to 0.5 µM and the IC50 [3] is reported as 0.5 to 1 µM.

`Cc1ccc(S(=O)(=O)N[C@H]2CC[C@H](CC#N)OC2)cc1-c1cnc2c(N)nc(C(=O)NC3CC(F)(F)C3)cn12` [Example 451, 8-amino-3-(5-(N-((3S,6R)-6-(cyanomethyl)tetrahydro-2H-pyran-3-yl)sulfamoyl)-2-methylphenyl)-N-(3,3-difluorocyclobutyl)imidazo[1,2-a]pyrazine-6-carboxamide trifluoroacetate salt] gave an IC50 [1] of less than 0.1 µM, an IC50 [2] of 0.1 to 0.5 µM and an IC50 [3] of 0.5 to 1 µM.

With `Cc1ccc(S(=O)(=O)N[C@H]2CC[C@](C)(O)CC2)cc1-c1cnc2c(N)ncnn12` [Example 463, 3-(4-Aminoimidazo[2,1-f][1,2,4]triazin-7-yl)-N-((1r,4r)-4-hydroxy-4-methylcyclohexyl)-4-methylbenzenesulfonamide] the IC50 [1] was less than 0.1 µM, the IC50 [2] was 0.1 to 0.5 µM and the IC50 [3] was 0.1 to 0.5 µM.

Work on `Cc1ccc(S(=O)(=O)N2CCC[C@@H](N)C2)cc1-c1cnc2c(N)nc(C(F)(F)F)cn12` [Example 464, (R)-3-(5-((3-Aminopiperidin-1-yl)sulfonyl)-2-methylphenyl)-6-(trifluoromethyl)imidazo[1,2-a]pyrazin-8-amine tris(2,2,2-trifluoroacetate)] yielded an IC50 [1] of less than 0.1 µM, an IC50 [2] of less than 0.1 µM and an IC50 [3] of less than 0.1 µM.

In the case of `Cc1cn2c(-c3cc(S(=O)(=O)N[C@@H]4CC[C@@H](C(C)(C)O)OC4)c(C)cc3C)cnc2c(N)n1` [Example 465, 5-(8-Amino-6-methylimidazo[1,2-a]pyrazin-3-yl)-N-((3R,6S)-6-(2-hydroxypropan-2-yl)tetrahydro-2H-pyran-3-yl)-2,4-dimethylbenzenesulfonamide], the IC50 [1] is reported as less than 0.1 µM, the IC50 [2] is reported as 0.5 to 2 µM and the IC50 [3] is reported as 0.1 to 0.5 µM.

In the case of `Cc1c(F)cc(S(=O)(=O)N[C@H]2CC[C@H](CC#N)OC2)cc1-c1cnc2c(N)nc(C(F)(F)F)nn12` [Example 466, 3-(4-Amino-2-(trifluoromethyl)imidazo[2,1-f][1,2,4]triazin-7-yl)-N-((3S,6R)-6-(cyanomethyl)tetrahydro-2H-pyran-3-yl)-5-fluoro-4-methylbenzenesulfonamide], the IC50 [1] is reported as less than 0.1 µM, the IC50 [2] is reported as less than 0.1 µM and the IC50 [3] is reported as less than 0.1 µM.

With `Cc1ccc(S(=O)(=O)N[C@H]2CC[C@H](CF)OC2)cc1-c1cnc2c(N)ncnn12` [Example 467, 3-(4-Aminoimidazo[2,1-f][1,2,4]triazin-7-yl)-N-((3S,6R)-6-(fluoromethyl)tetrahydro-2H-pyran-3-yl)-4-methylbenzenesulfonamide] the IC50 [1] was less than 0.1 µM, the IC50 [2] was 0.1 to 0.5 µM and the IC50 [3] was less than 0.1 µM.

`Cc1nc(N)c2ncc(-c3cc(S(=O)(=O)NCC(C)(C)O)cc(F)c3C)n2n1` [Example 468, 3-(4-Amino-2-methylimidazo[2,1-f][1,2,4]triazin-7-yl)-5-fluoro-N-(2-hydroxy-2-methylpropyl)-4-methylbenzenesulfonamide] showed an IC50 [1] of less than 0.1 µM, an IC50 [2] of 0.1 to 0.5 µM and an IC50 [3] of 0.1 to 0.5 µM.

`[2H]C([2H])([2H])c1nc(N)c2ncc(-c3cc(S(=O)(=O)NCC(C)(C)O)cc(F)c3C([2H])([2H])[2H])n2n1` [Example 469, 3-(4-Amino-2-(methyl-d3)imidazo[2,1-f][1,2,4]triazin-7-yl)-5-fluoro-N-(2-hydroxy-2-methylpropyl)-4-(methyl-d3)benzenesulfonamide] was tested, and the IC50 [1] was less than 0.1 µM, the IC50 [2] was 0.1 to 0.5 µM and the IC50 [3] was 0.1 to 0.5 µM.
